Source: ChEMBL document CHEMBL3872232, “2-Azetidinones: Synthesis and biological evaluation as potential anti-breast cancer agents” (Eur J Med Chem, 2016)
Active and inactive are the calls of the source. The rule behind the calls is not given here.

Columns and labels:
[1] = test system: MDA-MB-231; assay: Effect on cyclin E mRNA expression in human MDA-MB-231 cells assessed as ratio of cyclin E to GAPDH expression level at 5 uM after 24 hrs by RT-PCR method (reference value: 0.13); format: functional
[2] = test system: MDA-MB-231; assay: Effect on p21 mRNA expression in human MDA-MB-231 cells assessed as ratio of p21 to GAPDH expression level at 5 uM after 24 hrs by RT-PCR method (reference value: 0.02); format: functional
[3] = Cell cycle arrest in human MCF7 cells assessed as accumulation at sub-G1 phase at 5 uM after 24 hrs by propidium iodide staining based flow cytometry (reference value: 3.58%); format: functional
[4] = Cell cycle arrest in human MCF7 cells assessed as accumulation at G2/M phase at 5 uM after 24 hrs by propidium iodide staining based flow cytometry (reference value: 9.29%); format: functional
[5] = species: Homo sapiens; assay: Inhibition of Akt in human MDA-MB-231 cells assessed as ratio of phosphorylated Akt to GAPDH expression level at 5 uM after 48 hrs by immunoblot analysis (reference value: 0.33 to 0.81); format: cell-based
[6] = test system: MCF7; assay: Induction of apoptosis in human MCF7 cells assessed as early apoptotic cells at 5 uM after 24 hrs by Annexin V-FITC/propidium iodide staining based flow cytometry (reference value: 1.6%); format: functional
[7] = test system: MDA-MB-231; assay: Effect on Cdk2 mRNA expression in human MDA-MB-231 cells assessed as ratio of Cdk2 to GAPDH expression level at 5 uM after 24 hrs by RT-PCR method (reference value: 0.26); format: functional
[8] = Antiproliferative activity against human mammary epithelial cells after 48 hrs by MTT assay; format: cell-based, Epithelial cell
[9] = test system: MDA-MB-231; assay: Induction of apoptosis in human MDA-MB-231 cells assessed as late apoptotic cells at 5 uM after 24 hrs by Annexin V-FITC/propidium iodide staining based flow cytometry (reference value: 1.8%); format: functional
[10] = test system: MDA-MB-231; assay: Induction of apoptosis in human MDA-MB-231 cells assessed as early apoptotic cells at 5 uM after 24 hrs by Annexin V-FITC/propidium iodide staining based flow cytometry (reference value: 0.5%); format: functional
[11] = Antiproliferative activity against human MDA-MB-231 cells after 48 hrs by MTT assay; format: functional, cell-based; details: MDA-MB-231, 48 h
[12] = test system: MDA-MB-231; assay: Effect on p53 gene expression in human MDA-MB-231 cells assessed as ratio of p53 to beta-actin expression level at 5 uM after 24 hrs by RT-PCR method (reference value: 0.22); format: functional
[13] = test system: MDA-MB-231; assay: Effect on Bid gene expression in human MDA-MB-231 cells assessed as ratio of Bid to beta-actin expression level at 5 uM after 24 hrs by RT-PCR method (reference value: 0.17); format: functional
[14] = Antiproliferative activity against human MCF7 cells after 48 hrs by MTT assay; format: functional, cell-based; details: MCF7, 48 h
[15] = test system: MDA-MB-231; assay: Effect on p27 mRNA expression in human MDA-MB-231 cells assessed as ratio of p27 to GAPDH expression level at 5 uM after 24 hrs by RT-PCR method (reference value: 0.23); format: functional
[16] = test system: MDA-MB-231; assay: Effect on cyclin D1 mRNA expression in human MDA-MB-231 cells assessed as ratio of cyclin D1 to GAPDH expression level at 5 uM after 24 hrs by RT-PCR method (reference value: 0.71); format: functional
[17] = Cell cycle arrest in human MDA-MB-231 cells assessed as increase in cell accumulation at G2/M phase at 5 uM after 24 hrs by propidium iodide staining based flow cytometry; format: functional
[18] = test system: MDA-MB-231; assay: Induction of apoptosis in human MDA-MB-231 cells assessed as necrotic cells at 5 uM after 24 hrs by Annexin V-FITC/propidium iodide staining based flow cytometry (reference value: 1.3%); format: functional
[19] = test system: MDA-MB-231; assay: Ratio of Bcl-2 to Bax gene expression in human MDA-MB-231 cells at 5 uM after 24 hrs by RT-PCR method (reference value: 0.03); format: functional
[20] = test system: MCF7; assay: Induction of apoptosis in human MCF7 cells assessed as late apoptotic cells at 5 uM after 24 hrs by Annexin V-FITC/propidium iodide staining based flow cytometry (reference value: 2.3%); format: functional
[21] = test system: MCF7; assay: Induction of apoptosis in human MCF7 cells assessed as necrotic cells at 5 uM after 24 hrs by Annexin V-FITC/propidium iodide staining based flow cytometry (reference value: 3.7%); format: functional
[22] = Cell cycle arrest in human MCF7 cells assessed as accumulation at G0/G1 phase at 5 uM after 24 hrs by propidium iodide staining based flow cytometry (reference value: 83.25%); format: functional
[23] = Cell cycle arrest in human MCF7 cells assessed as accumulation at S phase at 5 uM after 24 hrs by propidium iodide staining based flow cytometry (reference value: 4.23%); format: functional
[24] = test system: MDA-MB-231; assay: Effect on Cdk6 mRNA expression in human MDA-MB-231 cells assessed as ratio of Cdk6 to GAPDH expression level at 5 uM after 24 hrs by RT-PCR method (reference value: 1.37); format: functional
[25] = species: Homo sapiens; assay: Inhibition of Akt in human MDA-MB-231 cells assessed as ratio of phosphorylated GSK-3beta to GAPDH expression level at 5 uM after 48 hrs by immunoblot analysis (reference value: 0.14 to 1.50); format: cell-based
[26] = test system: MCF7; assay: Induction of apoptosis in human MCF7 cells assessed as increase in necrotic cells at 5 uM after 24 hrs by Annexin V-FITC/propidium iodide staining based flow cytometry relative to colchicine; format: functional
[27] = test system: MCF7; assay: Inhibition of Akt in human MCF7 cells assessed as GSK-3beta phosphorylation reduction in after 48 hrs by immunoblot analysis; format: cell-based
[28] = test system: MDA-MB-231; assay: Inhibition of Akt in human MDA-MB-231 cells assessed as reduction in GSK-3beta phosphorylation after 48 hrs by immunoblot analysis; format: cell-based
[29] = Safety index, ratio of compound IC50 to colchicine IC50 for human mammary epithelial cells; format: ADME, cell-based, Epithelial cell; details: read-out: Ratio IC50
[30] = species: Homo sapiens; assay: Inhibition of Akt in human MDA-MB-231 cells assessed as ratio of phosphorylated Akt to GAPDH expression level at 10 uM after 48 hrs by immunoblot analysis (reference value: 0.33 to 0.81); format: cell-based
[31] = species: Homo sapiens; assay: Inhibition of Akt in human MDA-MB-231 cells assessed as ratio of phosphorylated Akt to GAPDH expression level at 2 uM after 48 hrs by immunoblot analysis (reference value: 0.33 to 0.81); format: cell-based
[32] = test system: MDA-MB-231; assay: Inhibition of Akt phosphorylation in human MDA-MB-231 cells after 48 hrs by immunoblot analysis; format: cell-based
[33] = Cell cycle arrest in human MDA-MB-231 cells assessed as increase in cell accumulation at sub-G1 phase at 5 uM after 24 hrs by propidium iodide staining based flow cytometry; format: functional
[34] = species: Homo sapiens; assay: Inhibition of Akt in human MDA-MB-231 cells assessed as ratio of phosphorylated GSK-3beta to GAPDH expression level at 10 uM after 48 hrs by immunoblot analysis (reference value: 0.14 to 1.50); format: cell-based
[35] = species: Homo sapiens; assay: Inhibition of Akt in human MDA-MB-231 cells assessed as ratio of phosphorylated GSK-3beta to GAPDH expression level at 2 uM after 48 hrs by immunoblot analysis (reference value: 0.14 to 1.50); format: cell-based
[36] = test system: MDA-MB-231; assay: Inhibition of Akt in human MDA-MB-231 cells after 48 hrs by ELISA; format: cell-based
[37] = test system: MCF7; assay: Inhibition of Akt phosphorylation in human MCF7 cells after 48 hrs by immunoblot analysis; format: cell-based
[38] = species: Homo sapiens; assay: Inhibition of Akt in human MDA-MB-231 cells assessed as ratio of phosphorylated GSK-3beta to GAPDH expression level at 100 nM after 48 hrs by immunoblot analysis (reference value: 0.14 to 1.50); format: cell-based
[39] = species: Homo sapiens; assay: Inhibition of Akt in human MDA-MB-231 cells assessed as ratio of phosphorylated Akt to GAPDH expression level at 100 nM after 48 hrs by immunoblot analysis (reference value: 0.33 to 0.81); format: cell-based
[40] = Homo sapiens, Epithelial cell, 48 h, read-out: IC50

Row | SMILES | Ratio [1] | Ratio [2] | Activity [3] [%] | Activity [4] [%] | Ratio [5] | Activity [6] [%] | Ratio [7] | Activity [9] [%] | Activity [10] [%] | IC50 [11] [µM] | Ratio [12] | Ratio [13] | IC50 [14] [µM] | Ratio [15] | Ratio [16] | Activity [18] [%] | Ratio [19] | Activity [20] [%] | Activity [21] [%] | Activity [22] [%] | other results
1 | COc1cc2c(c(OC)c1OC)-c1ccc(OC)c(=O)cc1[C@@H](NC(C)=O)CC2 [COLCHICINE] | 0.19 | 0.6 | 7.4 | 16.2 | 0.23 to 0.44 | 1 | 0.39 | 5.8 | 2.3 | 3.55 | 0.3 | 0.42 | 0.072 | 0.6 | 1.5 | 0.9 | 0.1 | 1.8 | 6.5 | 66.2 | IC50 [8, 40]: 9.26 µM; Activity [17]: Active; Activity [23]: 10.3%; Ratio [24]: 1.56; Ratio [25]: 0.12 to 1.45
2 | CCOC(=O)/C(=C/c1ccccc1)CN1C(=O)[C@@H](OC)[C@H]1c1ccccc1Br | 0.03 | 0.03 | 12.9 | 9.11 | 0.03 | 4 | 0.18 | 5.4 | 2.2 | 6.86 | 0.25 | 0.56 | 5.79 | 0.41 | 0.47 | 0.9 | 0.01 | 6.7 | 13.1 | 71.2 | fold change (FC) [26]: 2; inhibition [27]: Dose-dependent effect; inhibition [28]: Dose-dependent effect; selectivity ratio [29]: 10; IC50 [8, 40]: 66.6 µM; Ratio [30]: 0.01; Ratio [31]: 0.16; inhibition [32]: Dose-dependent effect; Activity [33]: Active; Ratio [34]: 0.58; Ratio [35]: 1.16; inhibition [36]: Dose-dependent effect; Activity [23]: 5.17%; Ratio [24]: 0.19; Ratio [25]: 0.61; inhibition [37]: Dose-dependent effect
3 | CO[C@@H]1C(=O)N(C/C(C#N)=C/c2ccccc2)[C@@H]1c1ccc(F)cc1 | 0.2 | 0.09 | 2.83 | 9.68 | 0.45 | 1.7 | 0.32 | 4.7 | 1.1 | 9.24 | 0.21 | 0.39 | 8.31 | 0.33 | 1.59 | 1.6 | 0.03 | 2.3 | 6.9 | 83.2 | inhibition [28]: Dose-dependent effect; selectivity ratio [29]: 10; IC50 ([8]; epithelial cell): Non-Toxic; Ratio [30]: 0.58; Ratio [31]: 0.42; Ratio [34]: 0.2; Ratio [35]: 0.42; inhibition [36]: Dose-dependent effect; Activity [23]: 5.15%; Ratio [24]: 1.3; Ratio [25]: 0.22
4 | COC[C@H]1OC(=O)c2coc3c2[C@@]1(C)C1=C(C3=O)[C@@H]2CCC(=O)[C@@]2(C)C[C@H]1OC(C)=O |  |  |  |  |  |  |  |  |  |  |  |  |  |  |  |  |  |  |  |  | Ratio [38]: 0.61; Ratio [39]: 0.01
